In US8097709B2, “Macrolactam compounds” (Novobiotic Pharmaceuticals, Inc., priority 2007, dated 2012):
In brackets after ≈: the same amount, converted by molar mass.

Experiments:
[1] = system: B. subtilis 1A1; experiment: Growth inhibition on solid agar (5 μl spot on bacterial lawn); type: cell-based; conditions: minimal concentration giving observable zone of no growth, MHB agar
[2] = system: B. anthracis Sterne; type: cell-based; conditions: minimal concentration giving observable zone of no growth, MHB agar
[3] = system: MRSA NRS1; experiment: Growth inhibition on solid agar (5 μl spot on bacterial lawn); type: cell-based, Staphylococcus aureus; conditions: minimal concentration giving observable zone of no growth, MHB agar
[4] = system: MRSA NRS108; experiment: as above; type: cell-based, Staphylococcus aureus; conditions: minimal concentration giving observable zone of no growth, MHB agar
[5] = system: E. faecalis ATCC 51575 (VRE); experiment: as above; type: cell-based; conditions: minimal concentration giving observable zone of no growth, MHB agar
[6] = system: E. faecalis ATCC 51299 (VRE); experiment: as above; type: cell-based; conditions: minimal concentration giving observable zone of no growth, MHB agar
[7] = system: E. faecalis BM4147 (VRE); experiment: as above; type: cell-based; conditions: minimal concentration giving observable zone of no growth, MHB agar
[8] = system: NIH3T3 mouse embryonic fibroblasts; experiment: Mammalian cytotoxicity assay (CellTiter 96 AQueous One Solution); type: cell-based; conditions: NIH3T3 cells, 24 hr exposure; concentration with 50% of control signal
Experimental: Mammalian cytotoxicity assays were performed using NIH3T3 mouse embryonic fibroblasts (ATCC CRL-1658), and cytotoxicity was measured using the CellTiter 96® AQueous One Solution Cell Proliferation Assay (Promega, Madison, Wis., Cat: G3582), according to the manufacturer's recommendations.
A control of DMSO was also included (wells in column A01, and A12).
An exponentially growing population of NIH/3T3 mouse embryonic fibroblast cells was trypsinized into single cell suspension and seeded at 3000 cells per 100 μl in all wells, except column 11 and 12 of a sterile 96-well flat bottom plate. […]
The plate was visually inspected under a dissecting microscope, and the absorbance at 490 nm was read using a Spectramax Plus Spectrophotometer, with wells A12, and B12 reserved as blanks (FIG. 3). The signal of compound alone (well All) was verified not to contribute to the absorbance at this wavelength. Next, 20 μl of the CellTiter 96® AQueous One Solution Cell Proliferation Assay (Promega, Madison, Wis., Cat: G3582) was added to each well, and the plate was read after 3 hr of incubation. […]

[9] = system: human red blood cells; type: cell-based
Experimental: The effect of NOVO3 on the hemolysis of human red blood cells was also tested. A total of 10 ml of expired packed red blood cells from the blood bank was gently added to 80 ml of PBS (Phosphate buffered saline), and pelleted at 1000 g for 5 minutes at 4° C. The upper phase and buffy layer (white blood cells) were removed. The cells are repeatedly washed by gentle mixing with PBS, and centrifugation until the upper phase is clear. In the last wash, 40 ml of 1×PBS with 0.05% BSA was added to half of the red blood cells while 40 ml of 1×PBS without BSA was added to the other half. The upper phase of the last wash was removed to leave a total volume of about 10 ml. The concentration of the red blood cells was measured by using the spectrophometer at 600 nm. […]
The compound NOVO3 is two-fold serially diluted (similar to that described above for mammalian NIH3T3 cytotoxicity assay) as 100× concentration in DMSO, ranging from 12.5 μg/ml to 3200 μg/ml. […] After thorough mixing, the absorbance at 450 nm was read using a Spectramax Plus Spectrophotometer, with wells A12, and B12 reserved […], using wells with only 1×PBS as blanks.
The absorbance at 450 nm measured the amount of hemoglobin released by the lysis of red blood cells (FIG. 4). […]

[10] = system: MSSA 29213; experiment: Minimal Inhibitory Concentration in broth; type: cell-based; conditions: Staphylococcus aureus
[11] = system: MSSA 33591; experiment: Minimal Inhibitory Concentration in broth; type: cell-based; conditions: Staphylococcus aureus
[12] = system: C. difficile 2001; experiment: Minimal Inhibitory Concentration in broth; type: cell-based; conditions: Clostridioides difficile, 2001, C. difficile 2001
[13] = system: C. difficile 196; experiment: Minimal Inhibitory Concentration in broth; type: cell-based; conditions: Clostridioides difficile, MHB + 0.05% BSA
[14] = system: B. subtilis 1A1; experiment: Minimal Inhibitory Concentration in broth; conditions: Bacillus subtilis, 1A1, B. subtilis 1A1
[15] = system: MRSA NRS108; experiment: Minimal Inhibitory Concentration in broth; conditions: Staphylococcus aureus

Q: With CC1/C=C/C=C\C=C\CC(C)C(OC2OC(C)C(O)C(N)C2O)C\C=C/C=C/C=C\C(=O)NC1 (stereo not shown) [NOVO3] as the compound, how does the “Growth Inhibition with 5 μl of NOVO3” value [1] read?
A: The value was 0.125 µg/mL.

Q: And the “Growth Inhibition with 5 μl of NOVO3” value [2]?
A: Its value is 1.25 µg/mL.

Q: What about the “Growth Inhibition with 5 μl of NOVO3” value [3] of the same compound?
A: The value was 1.25 µg/mL.

Q: And the “Growth Inhibition with 5 μl of NOVO3” value [4]?
A: The value was 1.25 µg/mL.

Q: And the “Growth Inhibition with 5 μl of NOVO3” value [5]?
A: The value was 5 µg/mL.

Q: And the “Growth Inhibition with 5 μl of NOVO3” value [6]?
A: Its value is 1.25 µg/mL.

Q: What about the “Growth Inhibition with 5 μl of NOVO3” value [7] of the same compound?
A: Its value is 1.25 µg/mL.

Q: What about the LD50 [8] of the same compound?
A: Its LD50 is > 32 µg/mL.

Q: What about the hemolysis [9] of the same compound?
A: Its hemolysis is “no significant hemolysis”.

Q: And the MIC ([10]; MHB)?
A: Its MIC is 8 µg/mL (≈ 16.9 µM).

Q: What about the MIC ([10]; MHB + 0.05% BSA) of the same compound?
A: Its MIC is 0.25 µg/mL.

Q: What about the MIC ([11]; MHB) of the same compound?
A: The MIC was 8 µg/mL (≈ 16.9 µM).

Q: And the MIC ([11]; MHB + 0.05% BSA)?
A: The MIC was 0.25 µg/mL.

Q: And the MIC ([12]; MHB)?
A: The MIC was 32 µg/mL (≈ 67.7 µM).

Q: And the MIC ([12]; MHB + 0.05% BSA)?
A: Its MIC is 8 µg/mL.

Q: And the MIC [13]?
A: Its MIC is 8 µg/mL.

Q: And the MIC ([14]; MHB (Table 3))?
A: Its MIC is 3 ± 1.3 µg/mL (≈ 6.35 µM).

Q: And the MIC ([14]; MHB (Table 4, serum study))?
A: The MIC was 3 ± 1.3 µg/mL (≈ 6.35 µM).

Q: What about the MIC ([14]; MHB + 0.02% Tween 80) of the same compound?
A: Its MIC is 0.25 µg/mL.

Q: And the MIC ([14]; MHB + 0.05% BSA)?
A: The MIC was 0.166 ± 0.08 µg/mL.

Q: What about the MIC ([14]; MHB + 10% Calf Bovine Serum) of the same compound?
A: The MIC was 0.144 µg/mL.

Q: What about the MIC ([14]; MHB + 10% human serum) of the same compound?
A: The MIC was 0.125 µg/mL.

Q: What about the MIC ([14]; MHB + 10% mouse serum) of the same compound?
A: Its MIC is 0.125 µg/mL.

Q: And the MIC ([14]; MHB + 40% Calf Bovine Serum)?
A: The MIC was 0.125 µg/mL.

Q: And the MIC ([15]; MRSA NRS108, MHB (Table 3))?
A: The MIC was 8 µg/mL (≈ 16.9 µM).

Q: What about the MIC ([15]; MRSA NRS108, MHB (Table 4B, serum study)) of the same compound?
A: The MIC was 4 to 8 µg/mL (≈ 8.46 to 16.9 µM).

Q: What about the MIC ([15]; MRSA NRS108, MHB + 0.05% BSA) of the same compound?
A: Its MIC is 0.25 to 0.5 µg/mL.

Q: What about the MIC ([15]; MRSA NRS108, MHB + 10% Calf Bovine Serum) of the same compound?
A: The MIC was 0.25 to 0.5 µg/mL.

Q: What about the MIC ([15]; MRSA NRS108, MHB + 40% Calf Bovine Serum) of the same compound?
A: Its MIC is 0.25 µg/mL.

Q: What about the MIC ([15]; MRSA|NRS108, MRSA NRS108, GM (Dulbecco's Modified Eagle's medium with 10% bovine calf serum)) of the same compound?
A: Its MIC is 0.25 µg/mL (≈ 0.529 µM).

Q: Which “absorbance at 450 nm (hemoglobin released)” value [9] does the source give for Triton X100 [reference compound] here?
A: The value was 0.41.
